Experiments:
UKE-1 = test: Cellular proliferation assay (CellTiter-Glo); details: Homo sapiens, UKE1
Method: (§1) All suspension cells were plated (96-well) in triplicate at 5,000-30,000 cells per well for testing (n=3). Viable cell number was estimated after 3, 7 and 10 days by counting viable cells from one vehicle well, generating a cell dilution series, transferring 20 ml per well in duplicate to a 384-well plate, and performing a linear regression to CellTiter-Glo (Promega) response (SPECTRAmax M3, Molecular Devices). Cells from all wells were also fourfold diluted in media and transferred in duplicate for CellTiter-Glo measurement. On days 3 and 7, an equal volume for all wells was split-back with fresh media and compound, such that the resulting cell density for the vehicle well matched the initial seeding density. For days 7 and 10, estimated cell number represents the split-adjusted theoretical cell number. […] For growth assays with inhibitors, n=3 for each concentration with two independent experiments.

SK-N-SH = test: Soft agar growth assay (Alamar Blue); details: Neuroblastoma, 100 nM cortistatin A
Method: For the 62 cell lines 96 well suspension cell culture plates were prepared. 100 μL of the soft agar bottom layer (0.6% final concentration in complete medium) was poured and left to solidify. 50 μL of the soft agar top layer (0.4% final concentration) containing the corresponding cells and cell number were then added on top, solidified and incubated at 37° C., 10% CO2. After the soft agar had solidified, the test items were added at indicated final concentrations into the inner wells of the plate. Subsequently, the assay was incubated in cell culture incubators for 8 to 14 days. Finally, the assay was developed using Alamar Blue and upon 1-5 h of incubation at 37° C. fluorescence intensity was determined (excitation: 560 nm; emission: 590 nm). As low control, cells were treated with 1E-05M Staurosporine (6fold values). As high control, cells were treated with 0.1% DMSO (solvent control, 6 fold values).
Raw data were converted into percent soft agar growth relative to high controls (solvent 0.1% DMSO) and low controls (1E-05M Staurosporine), which were set to 100% and 0%, respectively.

SET-2 cells = test: SET-2 differentiation assay (CD41/CD61 flow cytometry); details: 50 nM cortistatin A, 3 days; FIG. 3
Method: Cell pellets were collected at 4° C., washed three times with cold PBS, and stained with anti-CD61-PE (ab91128) or anti-CD41-PerCP (ab134373) and analyzed by flow cytometry.

ALL-SIL = test: Cellular proliferation assay (CellTiter-Glo); details: Homo sapiens
Method: as §1

HL-60 = test: Cellular proliferation assay (CellTiter-Glo); details: Homo sapiens
Method: as §1

## CN(C)[C@H]1C[C@@]23CC[C@@]4(O2)C(=CC[C@]2(C)[C@@H](c5ccc6ccncc6c5)CC[C@H]24)C=C3[C@@H](O)[C@@H]1O [Cortistatin A, cortistatin A]
UKE-1
  GI50: 7 nM
SK-N-SH
  % growth rel. to vehicle: 29%
SET-2 cells
  differentiation of SET-2 cells (percent of cells with megakaryocytic markers CD41 and CD61): induces differentiation of SET-2 cells
ALL-SIL
  GI50: 2 nM
HL-60
  GI50: 7 nM

— patent publication US20180135134A1, “TARGETED SELECTION OF PATIENTS FOR TREATMENT WITH CORTISTATIN DERIVATIVES” (President and Fellows of Harvard College, priority 2015, published 2018)
